US6376506B1, “Sulfamide-metalloprotease inhibitors” (Syntex (U.S.A.) LLC, priority 1997, dated 2002)
pIC50: −log10 of the molar value. Structures can show the parent of a compound that is named as a salt.

Legend:
[1] = biological target: T1, human collagenase-1 catalytic domain (Homo sapiens, UniProt P03956); test: MMP inhibition in vitro, human collagenase-1; format: biochemical; settings: MCA-Pro-Leu-Gly-Leu-DPA-Ala-Arg-NH2 hydrolysis at 37° C.; read-out: Collagenase-I IC50
T1 construct: the collagenase-1 catalytic domain was released by treatment with 1 mM of aminophenylmercuric acetate (APMA); ubiquitin (cleaved yes); made in house; host or cells: E. coli
T1 sequence (P03956 100-269 limits assumed): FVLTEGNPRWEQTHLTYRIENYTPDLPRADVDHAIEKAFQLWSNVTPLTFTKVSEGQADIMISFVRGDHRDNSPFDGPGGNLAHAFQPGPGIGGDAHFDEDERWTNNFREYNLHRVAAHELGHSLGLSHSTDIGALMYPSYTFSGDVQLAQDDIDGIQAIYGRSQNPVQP
Experimental: The catalytic domain of human collagenase-1 was expressed as a fusion protein with ubiquitin in E. Coli as described in Gehring, E. R. et al., J. Biol. Chem., 270, 22507, (1995). After purification of the fusion protein, the collagenase-1 catalytic domain was released by treatment with 1 mM of aminophenylmercuric acetate (APMA) for 1 hour at 37° C. and then purified by zinc chelate chromatography.
(§1) The matrix metalloprotease inhibitory activity of compounds of this invention in vitro was determined based on the hydrolysis of MCA-Pro-Leu-Gly-Leu-DPA-Ala-Arg-NH2 (Bachem, Inc.) at 37° C. as described in Knight, C. G., et al., FEBS Lett., 296, 263-266 (1992).
(§2) The matrix metalloprotease enzyme was diluted with assay buffer (50 mM Tricine pH 7.5, 200 mM NaCl, 10 mM CaCl2, and 0.005% Brij-35) containing 10 μmole of above substrate dissolved in DMSO. Compounds of the invention dissolved in DMSO or only DMSO (control samples) were added such that the final DMSO concentration in all assays was 2.5%. The fluorescence changes were monitored with a Perkin-Elmer LS-50B flourimeter using an excitation wavelength of 328 nm and an emission wavelength of 393 nm.

[2] = biological target: T2, human collagenase-3 catalytic domain (Homo sapiens, UniProt P45452); test: MMP inhibition in vitro, human collagenase-3; format: biochemical; settings: MCA-Pro-Leu-Gly-Leu-DPA-Ala-Arg-NH2 hydrolysis at 37° C.; read-out: Collagenase-III IC50
T2 construct: After purification, the catalytic domain was released by treatment with 1 mM APMA for 1 hour at 37° C; ubiquitin (N, cleaved yes); made in house; host or cells: E. coli
Experimental: The propeptide and catalytic domain portion of human collagcenase-3 was expressed in E. Coli as an N-terminal fusion protein with ubiquitin. After purification, the catalytic domain was released by treatment with 1 mM APMA for 1 hour at 37° C., and then purified by zinc chelate chromatography.
as §1, §2

Row | Compound | melting point | pIC50 [1] | pIC50 [2]
1 | CC(NS(=O)(=O)N1CCc2c([nH]c3ccccc23)C1)C(=O)[O-].[Na+] (stereo not shown) | 209 to 211 °C (dec.) |  | 
2 | COCCN(CC(=O)NO)S(=O)(=O)N1CCN(c2ccc(Cl)cc2)CC1 (as salt: TFA) [compound 16] | 54.1 to 57.7 °C |  | 
3 | O=C(NO)C1CCCCN1S(=O)(=O)N1CCC(c2c[nH]c3ccc(F)cc23)CC1 (racemic) [compound 254] |  | < 4.30 | 6.74
4 | CC(=O)N1CCN(S(=O)(=O)N2CCC(C(=O)c3ccc(Cl)cc3)CC2)C(C(=O)NO)C1 (racemic) [compound 255] |  | 6.92 | 9.72
5 | O=C(NO)C1CCCCN1S(=O)(=O)N1CCC(c2c[nH]c3cc(Cl)ccc23)CC1 (racemic) [compound 256] | 143 to 151 °C | 4.59 | 7.48
6 | O=CN1CCN(S(=O)(=O)N2CCC(C(=O)c3ccc(Cl)cc3)CC2)C(C(=O)NO)C1 (racemic) [compound 262] |  | 7.06 | 9.89
7 | O=C(NO)C1CCCCN1S(=O)(=O)N1CCC(c2noc3cc(F)ccc23)CC1 (racemic) [compound 286] | 145.8 to 146.9 °C | 7.54 | 10.20
8 | O=C(NO)C1CCCCN1S(=O)(=O)N1CC=C(c2ccc(Cl)cc2)CC1 (racemic) [compound 375, N-hydroxy-1-[4-(4-chlorophenyl)-1,2,3,6-tetrahydropyridine-1-sulfonyl]piperidine-2-(RS)-carboxamide] | 137.8 to 138.1 °C |  | 
9 | Cc1cc(C2=CCN(S(=O)(=O)N3CCN(C(=O)OCc4ccccc4)CC3C(=O)NO)CC2)ccc1F (racemic) [compound 381, N-hydroxy-4-benzyloxycarbonyl-1-[4-(4-fluoro-3-methylphenyl)-1,2,3,6-tetrahydropyridine-1-sulfonyl]piperazine-2-(RS)-carboxamide] | 67 to 70 °C |  | 
10 | CC(C)[C@H](C(=O)NO)N(Cc1ccccc1)S(=O)(=O)N1CCCCC1 [compound 1, N-hydroxy-2-(R)-[benzyl-(piperdine-1-sulfonyl)amino]-3-methybutyramide] | 80.6 to 85.7 °C | 6.26 | 6.18
11 | COCCN(CC(=O)NO)S(=O)(=O)N1CCN(c2ccc(Cl)cc2)CC1 [compound 16] |  | 4.66 | 7.68
12 | O=C(CNS(=O)(=O)N1CCN(c2cccc(Cl)c2)CC1)NO [compound 33, N-hydroxy-2-{[4-(3-chlorophenyl)piperazine-1-sulfonyl]amino}acetamide] | 138.1 to 138.6 °C |  | 
13 | CC(C)[C@@H](NS(=O)(=O)N1CCN(c2ccc(Cl)cn2)CC1)C(=O)NO [compound 50, N-hydroxy-2-(R)-{[4-(5-chloropyridin-2yl)piperazine-1-sulfonyl]amino}-3-methylbutyramide] | 146.7 to 147 °C | 6.66 | 8.89
14 | C[C@@H](NS(=O)(=O)N1CCC(Oc2ccc(Cl)cc2)CC1)C(=O)NO [compound 57, N-hydroxy-2-(R)-{[4-(4-chlorophenoxy)piperidine-1-sulfonyl]amino}propionamide] | 93 to 94 °C |  | 
15 | CC(C)(C)[C@@H](NS(=O)(=O)N1CCN(c2ccc(Cl)cc2)CC1)C(=S)NO [compound 62, N-hydroxy-2-(R)-{[4-(4-chlorophenyl)piperazine-1-sulfonyl]amino}-3-methyl-3-methylthiobutyramide] | 158.5 to 159.6 °C |  | 
16 | O=C(NO)[C@@H](Cc1ccc(O)cc1)NS(=O)(=O)N1CCN(c2ccc(Cl)cn2)CC1 [compound 103, N-hydroxy-2-(R)-{[4-(5-chloropyridin-2-yl)piperazine-1-sulfonyl]amino}-3-(4-hydroxyphenyl)propionamide] | 142 °C |  | 
17 | CC(C)[C@H](C(=O)NO)N(CCCc1cccnc1)S(=O)(=O)N1CCC(Oc2ccc(Br)cc2)CC1 [compound 105] |  | 6.89 | 9.23
18 | C[C@H](NS(=O)(=O)N1CCC(C(=O)c2ccc(Cl)cc2)CC1)C(=O)NO [compound 125, N-hydroxy-2-(S)-{[4-(4-chlorobenzoyl)piperidine-1-sulfonyl]amino}propionamide] | 201.2 to 201.8 °C |  | 
19 | CC(C)[C@@H](NS(=O)(=O)N1CCC(c2ncc(-c3ccccc3)s2)CC1)C(=O)NO [compound 136, N-hydroxy-2-(R)-{[4-(5-phenylthiazol-2-yl)piperidine-1-sulfonyl]amino}-3-methylbutyramide] | 120 to 122.1 °C |  | 

Row | Compound | melting point | pIC50 [1] | pIC50 [2]
20 | C[C@@H](NS(=O)(=O)N1CCC(C(=O)c2ccc(Oc3ccccc3)cc2)CC1)C(=O)NO [compound 148, N-hydroxy-2-(R)-{[4-(4-phenoxybenzoyl)piperidine-1-sulfonyl]amino}propionamide] | 202 to 205 °C |  | 
21 | C[C@@H](NS(=O)(=O)N1CCN(C(=O)Nc2ccc(Cl)cc2)CC1)C(=O)NO [compound 177, N-hydroxy-2-(R)-{[4-(4-chlorophenylaminocarbonyl)piperazine-1-sulfonyl]amino}propionamide] |  | 5.03 | 8.80
22 | CC(C)[C@@H](NS(=O)(=O)N1CCC(Oc2cccc(Cl)n2)CC1)C(=O)NO [compound 183, N-hydroxy-2-(R)-{[4-(6-chloropyridin-2-yloxy)piperidine-1-sulfonyl]amino}-3-methylbutyramide] | 81 to 96 °C |  | 
23 | O=C(NO)[C@H](NS(=O)(=O)N1CCC(Oc2ccc(Cl)cn2)CC1)C1CCCCC1 [compound 207, N-hydroxy-2-(R)-{[4-(5-chloropyridin-2-yloxy)piperidine-1-sulfonyl]amino}-2-cyclohexylacetamide] | 171.1 to 171.4 °C |  | 
24 | C[C@@H](NS(=O)(=O)N1CCN(C(=O)Nc2ccc(Oc3ccccc3)cc2)CC1)C(=O)NO [compound 213, N-hydroxy-2-(R)-{[4-(4-phenoxyphenylaminocarbonyl)piperazine-1-sulfonyl]amino}propionamide] | 119 to 122 °C |  | 
25 | O=C(NO)[C@H](NS(=O)(=O)N1CCC(c2ccc(F)cc2)CC1)c1ccc(F)cc1 [compound 230, N-hydroxy-2-(R)-{[4-(4-fluorophenyl)piperidine-1-sulfonyl]amino}-2-(4-fluorophenyl)acetamide] | 90 to 92 °C |  | 
26 | O=C(NO)[C@H]1CCCCN1S(=O)(=O)N1CCCC1 [compound 232, N-hydroxy-1-(pyrrolidine-1-sulfonyl)piperidine-2-(R)-carboxamide] | 142 to 144 °C |  | 
27 | N#Cc1ccc2[nH]cc(C3CCN(S(=O)(=O)N4CCCC[C@@H]4C(=O)NO)CC3)c2c1 [compound 294] |  | < 4.30 | 6.47
28 | CN(C)C(=O)N1CCN(S(=O)(=O)N2CCC(C(=O)c3ccc(Cl)cc3)CC2)[C@@H](C(=O)NO)C1 [compound 298] |  | 6.89 | 9.70
29 | CN(C)S(=O)(=O)N1CCN(S(=O)(=O)N2CCC(C(=O)c3ccc(Cl)cc3)CC2)[C@@H](C(=O)NO)C1 [compound 315] |  |  | 10.00
30 | O=C(NO)C1(NS(=O)(=O)N2CCC(Oc3ccccc3)CC2)CCCC1 [compound 337, N-hydroxy-1-{[(4-phenoxy)piperidine-1-sulfonyl]amino}cyclopentane-1-carboxamide] | 124.5 to 125.5 °C |  | 
31 | O=C(NO)C1(NS(=O)(=O)N2CCN(c3ccc(Cl)cc3)CC2)CCOCC1 [compound 339, N-hydroxy-4-{[4-(4-chlorophenyl)piperazine-1-sulfonyl]amino}tetrahydropyran-4-carboxamide] | 192.5 to 192.7 °C |  | 
32 | O=C(NO)C1(NS(=O)(=O)N2CCN(c3ccc(Cl)cn3)CC2)CCCCC1 [compound 342] |  | 6.77 | 8.68
33 | CC(C)(NS(=O)(=O)N1CCC(C(=O)c2ccc(Cl)cc2)CC1)C(=O)NO [compound 351, N-hydroxy-2-{[4-(4-chlorobenzoyl)piperidine-1-sulfonyl]amino}-2-methylpropionamide] | 185.7 to 186.7 °C |  | 
34 | CN(Cc1ccccc1)S(=O)(=O)N(CC(=O)NO)Cc1ccccc1 [compound 355] |  | 6.19 | 7.25
35 | C[C@@H](NS(=O)(=O)N1CCN(c2ccc(Cl)cc2)CC1)C(=O)O [compound 414] |  | < 4.30 | 5.47
36 | CN(Cc1ccccc1)S(=O)(=O)N(CC(=O)O)Cc1ccccc1 [compound 430] |  | 5.66 | 6.05
37 | C[C@H](C(=O)O)N(Cc1ccccc1)S(=O)(=O)NCc1ccccc1 [compound 431] |  | < 4.30 | 5.19
